{"source": "paper PMC8894159", "about": "“Paltusotine, a novel oral once-daily nonpeptide SST2 receptor agonist, suppresses GH and IGF-1 in healthy volunteers” (Pituitary, 2022)", "key": {"[1]": {"test": "Multiple ascending dose plasma pharmacokinetics in healthy volunteers", "type": "in vivo, human", "settings": "for Cmax / Tmax / AUC(0-t) / half-life: human, plasma, oral; for AUC(0-t): read-out: AUC0-24", "method": "In the single-dose phase, participants were randomized 6:2 to paltusotine (1.25, 2.5, 5, 10, 20, 40, and 60 mg) or placebo in 7 cohorts (S1 to S7). Cohorts comparing oral bioavailability of solution versus capsules and the effect of a standardized high-fat, high-calorie breakfast on oral bioavailability of the capsule formulation employed the 10 mg dose level. In the multiple-dose phase, participants were randomized 6:3 to once-daily oral paltusotine capsules or placebo at doses of 5 mg for 7 days (M1, Day Last = Day 7), and 10, 20, and 30 mg daily for 10 days (M2, M3, M4, Day Last = Day 10). The initial starting dose of 1.25 mg in the single-dose phase was selected for this study based on nonclinical pharmacologic activity, pharmacokinetics, and safety studies. Subsequent doses were either specified in the protocol or were selected by the safety review committee responsible for the safety oversight of the study.\nSingle-dose cohorts: Plasma samples were collected on Day 1 (pre-dose, every 15 min up to 90 min post-dose, then at 2, 3, 4, 6, 8, 10, 12, 18, 24, 48, 72, 96, 120, and 144 h post-dose). Multiple-dose cohorts: For the 5 mg cohort, plasma samples were collected on Day 1 (pre-dose, every 15 min up to 90 min post-dose, then at 2, 3, 4, 6, 8, 10, 12, and 18 h post-dose), Days 2–6 (pre-dose and 2 h post-dose), Day 7 (same time points as Day 1, followed by samples at 18, 24, 48, 72, 96, 120, and 144 h post-dose). For all other multiple-dose cohorts, plasma samples were collected on Day 1 (pre-dose, every 15 min up to 90 min post-dose, then at 2, 3, 4, 6, 8, 10, 12, and 18 h post-dose), Days […] (same time points as Day 1, followed by samples at 18, 24, 48, 72, 96, 120, 144, 192, and 240 h post-dose).\nPlasma pharmacokinetic sample analysis for paltusotine was determined using validated procedures by CPR Pharma Services (Thebarton, Australia). Briefly, plasma paltusotine concentrations were determined by high-pressure liquid chromatography (HPLC) coupled with tandem mass spectrometry detection (MS/MS). Deuterated paltusotine was used as an internal standard. Supported liquid extraction was used to extract paltusotine and the internal standard. The analyte was separated by HPLC using an ACE C18-AR column (Advanced Chromatography Technologies, Ltd, Aberdeen, Scotland), and the eluates were monitored by an API 4000™ LC–MS/MS System (Sciex, Framingham, MA) in positive multiple reaction monitoring mode. The extract was then assayed against a calibration curve. The data were acquired and integrated by the data acquisition software Analyst® (Sciex), linked directly to the API 4000™ LC–MS/MS System, and then processed using Watson LIMS™ software (Thermo Scientific, Waltham, MA), where applicable. The calibration range was 0.100 to 100 ng/mL using 100 μL of plasma, with a lower limit of quantification of 0.100 ng/mL. The inter-assay accuracy was 94% to 100%, and the inter-assay precision (% CV) was between 6.1% and 15%.\nFor assessing pharmacokinetics of paltusotine, the single-dose pharmacokinetic population included all randomized participants who received any amount of study drug with sufficient plasma concentration data. For the multiple-dose cohorts, only participants who received all doses were included. The relative bioavailability of the capsule formulation was determined by comparing its pharmacokinetic parameters with those of the solution formulation at the 10 mg dose. Food effect was determined at the same dose by comparing pharmacokinetic parameters in the fasting state to those when paltusotine was administered with a high-fat, high-calorie meal. For both formulation and food effect, ANOVA with treatment as a fixed effect and subject as a random effect was performed. Data for peak concentration (Cmax), AUC0-last, and AUC0-inf were natural log-transformed."}, "[2]": {"test": "Safety and tolerability, single-dose cohorts", "type": "in vivo, human", "method": "Adverse events and concomitant medications were recorded. Laboratory samples for clinical chemistry, hematology, coagulation tests, and urinalysis were collected under fasted conditions. Participants who discontinued prematurely attended an early termination visit.\nFor the safety analysis, adverse events were coded using the Medical Dictionary for Regulatory Activities (MedDRA® Version 20.0). Adverse events were grouped by preferred terms. Treatment-emergent adverse events (TEAEs) were summarized with descriptive statistics."}, "[3]": {"parameters": "method as in ref 14 = [14]; 14. Madan A, Juo R, Ferrara-Cook C, Struthers RS, van Marle S, Krasner A (2020) Absorption, metabolism, excretion and absolute oral bioavailability [ 14 C]-CRN00808, an orally bioavailable, nonpeptide", "settings": "cited from earlier work"}, "[4]": {"parameters": "method as in doi:10.1530/endoabs.70.AEP627", "settings": "separate study, cited from earlier work"}, "[5]": {"settings": "5 mg, 5 mg capsules once daily, Day 1, mean ± SD"}, "[6]": {"settings": "5 mg, 5 mg capsules once daily, Day 7, mean ± SD"}, "[7]": {"settings": "10 mg, 10 mg capsules once daily, Day 1, mean ± SD"}, "[8]": {"settings": "10 mg, 10 mg capsules once daily, Day 10, mean ± SD"}, "[9]": {"settings": "20 mg, 20 mg capsules once daily, Day 1, mean ± SD"}, "[10]": {"settings": "20 mg, 20 mg capsules once daily, Day 10, mean ± SD"}, "[11]": {"settings": "30 mg, 30 mg capsules once daily, Day 1, mean ± SD"}, "[12]": {"settings": "30 mg, 30 mg capsules once daily, Day 10, mean ± SD"}, "[13]": {"settings": "single-dosing, safety population N = 41"}}, "note": "“And” between values parts separate entries of the source, which are not always exact repeats. Equal values may be shown once. Read-outs that look alike come from different tables or passages of the source."}
{"smiles": "Cl.N#Cc1cccc(-c2ccc3ncc(-c4cc(F)cc(F)c4)c(N4CCC(N)CC4)c3c2)c1O", "note": "[paltusotine, 3-[4-(4-Aminopiperidin-1-yl)-3-(3,5-difluorophenyl)quinolin-6-yl]-2-hydroxybenzonitrile hydrochloride]", "values": [{"measurement": "Ctrough", "setting": "[1]; 5 mg capsules once daily, Day 7, mean ± SD", "result": "10.8 ± 5.11", "unit": "ng/mL"}, {"measurement": "Ctrough", "setting": "[1]; 10 mg capsules once daily, Day 10, mean ± SD", "result": "22.2 ng/mL and 22.2 ± 7.38 ng/mL"}, {"measurement": "Ctrough", "setting": "[1]; 20 mg capsules once daily, Day 10, mean ± SD", "result": "37.9 ± 11.4", "unit": "ng/mL"}, {"measurement": "Ctrough", "setting": "[1]; 30 mg capsules once daily, Day 10, mean ± SD", "result": "51.1 ± 32.0", "unit": "ng/mL"}, {"measurement": "Cmax", "setting": "[1]; [5]", "result": "16.8 ± 7.22", "unit": "ng/mL"}, {"measurement": "Tmax", "setting": "[1]; [5]", "result": "1.2 ± 0.1", "unit": "h"}, {"measurement": "AUC(0-t)", "setting": "[1]; [5]", "result": "167 ± 73.4", "unit": "ng·h/mL"}, {"measurement": "half-life", "setting": "[1]; 5 mg, 5 mg capsules once daily, Day 7, sampling to 144 h, mean ± SD, read-out: t1/2 (converted)", "result": "34 ± 4.7", "unit": "h"}, {"measurement": "Cmax", "setting": "[1]; [6]", "result": "35.5 ± 12", "unit": "ng/mL"}, {"measurement": "Tmax", "setting": "[1]; [6]", "result": "2.1 ± 0.6", "unit": "h"}, {"measurement": "AUC(0-t)", "setting": "[1]; [6]", "result": "421 ± 163", "unit": "ng·h/mL"}, {"measurement": "Cmax", "setting": "[1]; [7]", "result": "78.7 ± 45.3", "unit": "ng/mL"}, {"measurement": "Tmax", "setting": "[1]; [7]", "result": "1.8 ± 0.9", "unit": "h"}, {"measurement": "AUC(0-t)", "setting": "[1]; [7]", "result": "661 ± 340", "unit": "ng·h/mL"}, {"measurement": "half-life", "setting": "[1]; 10 mg, 10 mg capsules once daily, Day 10, sampling to 240 h, mean ± SD, read-out: t1/2 (converted)", "result": "42 ± 5", "unit": "h"}, {"measurement": "Cmax", "setting": "[1]; [8]", "result": "75.5 ± 37.4", "unit": "ng/mL"}, {"measurement": "Tmax", "setting": "[1]; [8]", "result": "3 ± 1.8", "unit": "h"}, {"measurement": "AUC(0-t)", "setting": "[1]; [8]", "result": "956 ± 371", "unit": "ng·h/mL"}, {"measurement": "Cmax", "setting": "[1]; [9]", "result": "88.7 ± 43.3", "unit": "ng/mL"}, {"measurement": "Tmax", "setting": "[1]; [9]", "result": "2.4 ± 0.8", "unit": "h"}, {"measurement": "AUC(0-t)", "setting": "[1]; [9]", "result": "811 ± 409", "unit": "ng·h/mL"}, {"measurement": "half-life", "setting": "[1]; 20 mg, 20 mg capsules once daily, Day 10, sampling to 240 h, mean ± SD, read-out: t1/2 (converted)", "result": "50 ± 6.6", "unit": "h"}, {"measurement": "Cmax", "setting": "[1]; [10]", "result": "132 ± 79.2", "unit": "ng/mL"}, {"measurement": "Tmax", "setting": "[1]; [10]", "result": "1.6 ± 0.4", "unit": "h"}, {"measurement": "AUC(0-t)", "setting": "[1]; [10]", "result": "1560 ± 733", "unit": "ng·h/mL"}, {"measurement": "Cmax", "setting": "[1]; [11]", "result": "78.2 ± 60.7", "unit": "ng/mL"}, {"measurement": "Tmax", "setting": "[1]; [11]", "result": "1.4 ± 0.9", "unit": "h"}, {"measurement": "AUC(0-t)", "setting": "[1]; [11]", "result": "578 ± 411", "unit": "ng·h/mL"}, {"measurement": "half-life", "setting": "[1]; 30 mg, 30 mg capsules once daily, Day 10, sampling to 240 h, mean ± SD, read-out: t1/2 (converted)", "result": "46 ± 7.4", "unit": "h"}, {"measurement": "Cmax", "setting": "[1]; [12]", "result": "154 ± 102", "unit": "ng/mL"}, {"measurement": "Tmax", "setting": "[1]; [12]", "result": "4.5 ± 2.1", "unit": "h"}, {"measurement": "AUC(0-t)", "setting": "[1]; [12]", "result": "2080 ± 1220", "unit": "ng·h/mL"}, {"measurement": "half-life", "setting": "[1]; conclusion summary, read-out: approximate t1/2", "result": "24 to 48", "unit": "h"}, {"measurement": "half-life", "setting": "[1]; multiple dose 10-30 mg range, sampling to 240 h after last dose, read-out: mean t1/2", "result": "42 to 50", "unit": "h"}, {"measurement": "life-threatening events or deaths", "setting": "[2]; all cohorts", "result": "No life-threatening events or deaths occurred"}, {"measurement": "tolerability", "setting": "[2]; single-dose administration", "result": "well tolerated"}, {"measurement": "share of TEAEs occurring at a dose level of 10 mg or higher", "setting": "[2]; single-dose cohorts", "result": 64, "unit": "%"}, {"measurement": "Abdominal distension (TEAE)", "setting": "[2]; [13]", "result": "2 (4.9%) n (%)"}, {"measurement": "Abdominal pain (TEAE)", "setting": "[2]; [13]", "result": "2 (4.9%) n (%)"}, {"measurement": "Abdominal pain upper (TEAE)", "setting": "[2]; [13]", "result": "2 (4.9%) n (%)"}, {"measurement": "Back pain (TEAE)", "setting": "[2]; [13]", "result": "2 (4.9%) n (%)"}, {"measurement": "Fatigue (TEAE)", "setting": "[2]; [13]", "result": "2 (4.9%) n (%)"}, {"measurement": "Headache (TEAE)", "setting": "[2]; [13]", "result": "5 n (%)"}, {"measurement": "Hypoesthesia (TEAE)", "setting": "[2]; [13]", "result": "2 (4.9%) n (%)"}, {"measurement": "Nausea (TEAE)", "setting": "[2]; [13]", "result": "2 (4.9%) n (%)"}, {"measurement": "Participants with at least 1 TEAE", "setting": "[2]; [13]", "result": "28 (68.3%) n (%)"}, {"measurement": "Tension headache (TEAE)", "setting": "[2]; [13]", "result": "2 (4.9%) n (%)"}, {"measurement": "Ventricular tachycardia (non-sustained) (TEAE)", "setting": "[2]; [13]", "result": "2 (4.9%) n (%)"}, {"measurement": "Headache (TEAE)", "setting": "[2]; single-dosing, safety population N = 41, listed as Paltusotine", "result": "5 (12.2%) n (%)"}, {"measurement": "oral bioavailability in animals", "setting": "[3]", "result": "high oral bioavailability"}, {"measurement": "mean absolute oral bioavailability", "setting": "[4]; oral solution", "result": 70, "unit": "%"}, {"measurement": "t1/2 after intravenous administration", "setting": "[4]; sampling up to 144 h", "result": 29, "unit": "h"}]}
